Data from PubChem BioAssay AID330 (DTP/NCI, 2004).
Where “and” joins values, the source holds several entries; their conditions need not be identical. Equal values may be shown once. Toxic doses and inconclusive results are not listed. The calls were made as follows: active = survival T/C of 150% or more; inactive = T/C below 125% in these data.

System: P388 leukemia ip, CD2F1 mice, survival T/C
Assay: NCI In Vivo Anticancer Drug Screen. Data for tumor model P388 Leukemia (intraperitoneal) in CD2F1 (CDF1) mice
Settings: endpoint: median survival time, higher = longer survival
Procedure, shortened: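 Mice carrying the transplanted tumor received test compound or vehicle. Survival was recorded in each group, and the value is the treated-group measurement divided by that of the vehicle-treated control group.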

[1] = dose: 50.0 mg/kg/injection, schedule: Q01DX009 (ip), vehicle: Klucel (hydroxypropylcellulose) (HPC)
[2] = dose: 100.0 mg/kg/injection, schedule: Q01DX009 (ip), vehicle: Klucel (hydroxypropylcellulose) (HPC)
[3] = dose: 200.0 mg/kg/injection, schedule: Q01DX009 (ip), vehicle: Klucel (hydroxypropylcellulose) (HPC)
[4] = dose: 100.0 mg/kg/injection, schedule: Q01DX009 (ip), vehicle: saline with Tween-80
[5] = dose: 50.0 mg/kg/injection, schedule: Q01DX009 (ip), vehicle: saline with Tween-80
[6] = dose: 50.0 mg/kg/injection, schedule: Q01DX009 (ip), vehicle: saline
[7] = dose: 100.0 mg/kg/injection, schedule: Q04DX002 (ip), vehicle: saline with Tween-80
[8] = dose: 200.0 mg/kg/injection, schedule: Q04DX002 (ip), vehicle: saline with Tween-80
[9] = dose: 400.0 mg/kg/injection, schedule: Q04DX002 (ip), vehicle: saline with Tween-80

Measured: T/C

CCOC(=O)c1ccc(N(C)Cc2cnc(N)c(C#N)n2)cc1
inactive: dose: 15.0 mg/kg/injection, schedule: Q01DX009 (ip), vehicle: saline with Tween-80 114 % of control | dose: 30.0 mg/kg/injection, schedule: Q01DX009 (ip), vehicle: saline with Tween-80 115 % of control | dose: 60.0 mg/kg/injection, schedule: Q01DX009 (ip), vehicle: saline with Tween-80 89 % of control

CNC1=C(C)C(=O)C(C)=C(C(C)(C)CC(=O)n2cc(F)c(=O)[nH]c2=O)C1=O
inactive: dose: 100.0 mg/kg/injection, schedule: Q01DX001 (ip), vehicle: saline with Tween-80 117 % of control | dose: 200.0 mg/kg/injection, schedule: Q01DX001 (ip), vehicle: saline with Tween-80 122 % of control

O=P(c1ccccc1)(c1ccccc1)C(O)c1ccc(F)cc1 (centres undefined)
inactive: [1] 89 % of control | [2] 100 % of control | [3] 93 % of control

Cc1cc(Br)ccc1N
inactive: [4] 110 % of control | dose: 200.0 mg/kg/injection, schedule: Q01DX009 (ip), vehicle: saline with Tween-80 110 % of control | dose: 400.0 mg/kg/injection, schedule: Q01DX009 (ip), vehicle: saline with Tween-80 105 % of control

CC(COCNc1ccccc1)C(=O)O (centres undefined)
inactive: [1] 103 % of control | [2] 103 % of control | [3] 100 % of control

CCOC(=O)C(=CNc1ccc2n[nH]nc2c1)C(=O)OCC
inactive: [1] 100 % of control | [2] 108 % of control

Cc1cc(N=NC(N)=S)c2ccccc2c1O
inactive: dose: 25.0 mg/kg/injection, schedule: Q04DX003 (ip), vehicle: Klucel (hydroxypropylcellulose) (HPC) 100 % of control | dose: 50.0 mg/kg/injection, schedule: Q04DX003 (ip), vehicle: Klucel (hydroxypropylcellulose) (HPC) 97 % of control | dose: 100.0 mg/kg/injection, schedule: Q04DX003 (ip), vehicle: Klucel (hydroxypropylcellulose) (HPC) 102 % of control | dose: 200.0 mg/kg/injection, schedule: Q04DX003 (ip), vehicle: Klucel (hydroxypropylcellulose) (HPC) 100 % of control

Cc1ccc(N(O)C(C)(C)C)cc1
inactive: dose: 25.0 mg/kg/injection, schedule: Q01DX009 (ip), vehicle: saline with Tween-80 97 % of control | dose: 25.0 mg/kg/injection, schedule: Q04DX003 (ip), vehicle: gum acacia 99 % of control | [5] 91 % of control | dose: 50.0 mg/kg/injection, schedule: Q04DX003 (ip), vehicle: gum acacia 100 % of control | [4] 102 % of control | dose: 100.0 mg/kg/injection, schedule: Q04DX003 (ip), vehicle: gum acacia 110 % of control | dose: 200.0 mg/kg/injection, schedule: Q04DX003 (ip), vehicle: gum acacia 100 % of control

CO[C@@H]1[C@@H](O)c2ccccc2N1C(C)=O
inactive: dose: 60.0 mg/kg/injection, schedule: Q01DX005 (ip), vehicle: saline 104 % of control | dose: 120.0 mg/kg/injection, schedule: Q01DX005 (ip), vehicle: saline 102 % of control | dose: 240.0 mg/kg/injection, schedule: Q01DX005 (ip), vehicle: saline 104 % of control

N#CC1C(=O)NC(=O)C(C#N)C1CCc1ccccc1 (centres undefined)
inactive: dose: 50.0 mg/kg/injection, schedule: Q01DX009 (ip), vehicle: distilled water + alcohol 103 % of control | dose: 100.0 mg/kg/injection, schedule: Q01DX009 (ip), vehicle: distilled water + alcohol 100 % of control | dose: 200.0 mg/kg/injection, schedule: Q01DX009 (ip), vehicle: distilled water + alcohol 100 % of control

O=C(O)C(O)CBr (centres undefined)
inactive: dose: 12.5 mg/kg/injection, schedule: Q01DX009 (ip), vehicle: saline 100 % of control | dose: 25.0 mg/kg/injection, schedule: Q01DX009 (ip), vehicle: saline 95 % of control | dose: 25.0 mg/kg/injection, schedule: Q04DX003 (ip), vehicle: saline 91 % of control | [6] 95 % of control | dose: 50.0 mg/kg/injection, schedule: Q04DX003 (ip), vehicle: saline 87 % of control

CC[N+](C)(C)c1ccc(/C=C(/C#N)C(=O)OC)cc1
inactive: [5] 100 % of control | [4] 103 % of control

CCOC(=O)C1=C(SC)SC(C(=O)OCC)C2C=C(C)C=CN12 (centres undefined)
inactive: dose: 15.0 mg/kg/injection, schedule: Q01DX005 (ip), vehicle: Klucel + Tween-80 97 % of control | dose: 30.0 mg/kg/injection, schedule: Q01DX005 (ip), vehicle: Klucel + Tween-80 108 % of control | dose: 60.0 mg/kg/injection, schedule: Q01DX005 (ip), vehicle: Klucel + Tween-80 104 % of control and 96 % of control

C1CCC2OCN3CCCCC3CC2C1 (centres undefined)
inactive: dose: 12.5 mg/kg/injection, schedule: Q01DX005 (ip), vehicle: saline 107 % of control and 98 % of control | dose: 25.0 mg/kg/injection, schedule: Q01DX005 (ip), vehicle: saline 99 % of control and 98 % of control | dose: 50.0 mg/kg/injection, schedule: Q01DX005 (ip), vehicle: saline 100 % of control and 111 % of control and 113 % of control | dose: 100.0 mg/kg/injection, schedule: Q01DX005 (ip), vehicle: saline 114 % of control and 118 % of control and 121 % of control

Cc1ccc(C)c(NC(=O)CCC(=O)CC(=O)c2ccncc2)c1
inactive: dose: 60.0 mg/kg/injection, schedule: Q01DX005 (ip), vehicle: saline with Tween-80 107 % of control | dose: 120.0 mg/kg/injection, schedule: Q01DX005 (ip), vehicle: saline with Tween-80 107 % of control | dose: 240.0 mg/kg/injection, schedule: Q01DX005 (ip), vehicle: saline with Tween-80 105 % of control

CNC(=O)Oc1ccc(/C=N/Sc2cccc([N+](=O)[O-])c2)cc1
inactive: [5] 101 % of control | [4] 89 % of control

COC(=O)c1c[nH]c(=S)n1C
inactive: dose: 100.0 mg/kg/injection, schedule: Q04DX002 (ip), vehicle: saline 98 % of control | dose: 200.0 mg/kg/injection, schedule: Q04DX002 (ip), vehicle: saline 100 % of control | dose: 400.0 mg/kg/injection, schedule: Q04DX002 (ip), vehicle: saline 105 % of control

CCOC(=O)C1C(=O)N2C(=O)C(NC(C)=O)=C(O)C2C1c1ccc(OC)cc1 (centres undefined)
inactive: [7] 100 % of control | [8] 100 % of control | [9] 98 % of control

O=C1Cc2ccccc2C(c2ccc(Cl)cc2Cl)N1 (centres undefined)
inactive: [6] 98 % of control | dose: 100.0 mg/kg/injection, schedule: Q01DX009 (ip), vehicle: saline 98 % of control | dose: 200.0 mg/kg/injection, schedule: Q01DX009 (ip), vehicle: saline 100 % of control

CC(C)=CCC1=C(C)C(=O)C(C)=C(C)C1=O
inactive: dose: 12.5 mg/kg/injection, schedule: Q01DX009 (ip), vehicle: distilled water + Tween-80 + alcohol 100 % of control | dose: 25.0 mg/kg/injection, schedule: Q01DX009 (ip), vehicle: distilled water + Tween-80 + alcohol 98 % of control | dose: 50.0 mg/kg/injection, schedule: Q01DX009 (ip), vehicle: distilled water + Tween-80 + alcohol 100 % of control | dose: 100.0 mg/kg/injection, schedule: Q01DX009 (ip), vehicle: distilled water + Tween-80 + alcohol 98 % of control | dose: 200.0 mg/kg/injection, schedule: Q01DX009 (ip), vehicle: distilled water + Tween-80 + alcohol 86 % of control

COC(=O)c1oc2c(c1C(=O)OC)c1ccccc1n2C(C)=O
inactive: [7] 102 % of control | [8] 105 % of control | [9] 100 % of control
